Assay [1] has as its system Nucleic Acid. The experiment in a line: Change in temperature (thermal denaturation) was determined from calf thymus DNA at 37 degree Celsius for 18 hours. Format: functional. Conditions: Bos taurus.
Assay [2] deals with A2780. The experiment in a line: In vitro cytotoxicity of compound was determined against A2780 cell lines (cisplatin resistant) at 37 degree C after 96 hr. Format: functional, Homo sapiens.
Assay [3] has as its system CH1. The experiment in a line: In vitro cytotoxicity of compound was determined against CH1 (cisplatin resistant) cell lines at 37 degree C after 96 hr. Format: functional, Homo sapiens.
The subject of assay [4] is CH1. Nature of the assay: In vitro cytotoxicity of compound was determined against CH1 cell lines at 37 degree C after 96 hr. In kind it is functional, Homo sapiens.
For assay [5], the system named is SK-OV-3. The experiment in a line: In vitro cytotoxicity of compound was determined against SKOV-3 cell lines at 37 degree C after 96 hr. In kind it is functional, Homo sapiens.
Assay [6] has as its system Nucleic Acid. The experiment in a line: Change in temperature (thermal denaturation) was determined from calf thymus DNA at 37 degree Celsius for 0 hours. In kind it is functional. As to conditions: Bos taurus.
Assay [7] concerns Nucleic Acid. The experiment in a line: Change in temperature (thermal denaturation) was determined from calf thymus DNA at 37 degree Celsius for 4 hours. Format: functional. As to conditions: Bos taurus.
Assay [8] concerns A2780. The experiment in a line: In vitro cytotoxicity of compound was determined against A2780 cell lines at 37 degree C after 96 hr. In kind it is functional, Homo sapiens.
Assay [9] in a line: Resistance factor of compound was determined from cisplatin resistant CH1 cell lines to that of CH1 cell lines. In kind it is functional.
Assay [10] is described as follows: Resistance factor of compound was determined from cisplatin resistant A2780 cell lines to that of A2780 cell lines. In kind it is functional.
The subject of assay [11] is Nucleic Acid. The experiment in a line: Change in temperature (thermal denaturation) was determined from calf thymus DNA at 37 degree Celsius for 36 hours. Format: functional. Conditions: Bos taurus.

As usually defined, the ΔTm is the change in melting temperature against a reference sample.

On to `COc1cc2c(cc1OCc1ccccc1)N=C[C@@H]1CCCN1C2=O`, for which the ΔTm worked out at 0.4 °C in [1], 0.2 °C in [6] and 0.4 °C in assay [7]. In addition, the Cytotoxicity is 0.48 µM in assay [2]; 0.145 µM in [3]; 0.145 µM in assay [4]; 0.46 µM in assay [5]; 0.17 µM in assay [8]. Further, the results for the Resistance factor in assay [9] and in [10] were 1 and 2.8, respectively.

For `COc1cc2c(cc1OCc1ccccc1)N=C[C@@H]1CC(CCOC(C)=O)=CN1C2=O`, the values for the ΔTm in assay [1], in [6] and in assay [7] were 2.53 °C, 1.57 °C and 2.11 °C, respectively. Moreover, the Cytotoxicity in [2] was 0.27 µM; in assay [3], 0.16 µM; in assay [4], 0.105 µM; in assay [5], 0.46 µM; in [8], 0.1 µM. The figures for the Resistance factor in [9] and in [10] were 1.5 and 2.7, respectively.

In the case of `COc1cc2c(cc1OCc1ccccc1)N=C[C@@H]1CC(CCO)=CN1C2=O`, the values for the ΔTm in assay [1], in assay [6] and in [7] were 5.6 °C, 3.98 °C and 4.61 °C, respectively. For the same compound, the Cytotoxicity in [2] turned out to be 0.105 µM; in assay [3] it was 0.037 µM; in assay [4] it was 0.09 µM; in assay [5] it was 0.105 µM; in assay [8], 0.07 µM. Further, the Resistance factor in assay [9] is 0.4; in assay [10], 1.5.

`Cc1ccc2c(c1O)N=C[C@@H]1CC(/C=C/C(N)=O)=CN1C2=O`: the ΔTm in assay [1] was found to be 13 °C; in [6], 9.4 °C; in assay [7], 11.2 °C. In addition, the Cytotoxicity came out at 0.16 µM in assay [2]; 0.05 µM in assay [3]; 0.062 µM in assay [4]; 0.16 µM in assay [5]; 0.155 µM in assay [8]. Besides, the Resistance factor in [9] stood at 0.81; in assay [10], 1.03.

For the compound `COc1cc2c(cc1OCc1ccccc1)N=C[C@@H]1CC(CC#N)=CN1C2=O`, the ΔTm in assay [1] worked out at 4.31 °C; in assay [6], 1.84 °C; in [7], 2.31 °C. The Cytotoxicity in [2] was 0.43 µM; in [3], 0.27 µM; in assay [4], 0.105 µM; in assay [5], 0.52 µM; in assay [8] it was 0.155 µM. The Resistance factor in assay [9] was found to be 2.6; in assay [10], 2.8.

Regarding `COC(=O)CC1=CN2C(=O)c3cc(OC)c(OCc4ccccc4)cc3N=C[C@@H]2C1`, the Cytotoxicity was found to be 0.12 µM in [2]; 0.04 µM in assay [3]; 0.016 µM in [4]; 0.12 µM in assay [5]; 0.0145 µM in assay [8]. The ΔTm in assay [11] worked out at 4.97 °C; in [6] it was 3.08 °C; in assay [7] it was 3.96 °C. For the same compound, the Resistance factor was found to be 2.5 in assay [9] and 8.3 in assay [10].

In the case of `COC(=O)CC1=CN2C(=O)c3cc(OC)c(OC)cc3N=C[C@@H]2C1`, the Cytotoxicity in assay [2] came to 0.46 µM; in assay [3], 0.15 µM; in assay [4], 0.115 µM; in assay [5] it was 0.45 µM; in assay [8], 0.36 µM. In addition, the ΔTm in [11] worked out at 6.65 °C; in [6], 3.41 °C; in assay [7], 4.63 °C. The Resistance factor in assay [9] and in assay [10] was 1.3 in each case.

The record behind these values is ChEMBL document CHEMBL1133277, “Effect of C2/C3-endo unsaturation on the cytotoxicity and DNA-binding reactivity of pyrrolo[2,1-c][1,4]benzodiazepines” (2000).
